Test results as given in PubChem BioAssay (NCI).
“And” between values parts separate entries of the source, which are not always exact repeats. Equal values may be shown once.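 The compound was tested at five concentrations on cells cultured in 96-well plates, with a 48-hour exposure period. Here, GI50 denotes the concentration required for 50% inhibition of growth. At the TGI there is no net growth.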 The source made the active and inactive calls. Cut-off read from the data, not from the text of the source: active = GI50 below about 0.43 µM; inactive = the rest.

test system: MDA-MB-468 breast; assay: inhibition of tumour cell growth, NCI panel, 48 h

Compound	GI50	TGI	outcome
O=C1NC(=O)C(c2c[nH]c3ccccc23)=C1c1c[nH]c2ccccc12	8.28 µM	> 25 µM	–
O=S(=O)(NCCCNc1cc(-c2cn(-c3ccccc3)nc2-c2cccc(O)c2)ccn1)c1ccc(C(F)(F)F)cc1	1.8 µM	5.55 µM	–
CC(C)=CC[C@@H]1CC2(CC=C(C)C)C(=O)C(OC3(C(=O)c4ccccc4)C(=O)C4(CC=C(C)C)C[C@@H](CC=C(C)C)C(C)(C)C(CC=C(C)C)(C4=O)C3=O)(C(=O)c3ccccc3)C(=O)C(CC=C(C)C)(C2=O)C1(C)C (some centres undefined)	1.23 µM	3.28 µM	–
CN1CCN(Cc2ccc(NC(=O)c3cncc(C#Cc4cnc(N)c5ncccc45)c3)cc2C(F)(F)F)CC1	0.368 µM	1.68 µM	–
Cn1ncnc1[C@@H]1c2n[nH]c(=O)c3cc(F)cc(c23)N[C@H]1c1ccc(F)cc1	> 100 µM	> 100 µM	–
CCOC(=O)c1noc2c1CCc1c-2cn(Cc2ccc(OC)cc2)c1-c1cc(OC)c(OC)c(OC)c1	5.62 µM	> 100 µM	–
Cn1cc(-c2ccc3nc(-c4ccc(CC(=O)Nc5cc(C(C)(C)C)no5)cc4)cnc3c2)cn1	0.0702 µM	> 3 µM	–
O=[N+]([O-])c1ccc(C2=NCCO2)cc1	> 100 µM	> 100 µM	–
Cc1ccc(NC(=O)c2ccc(CN3CCN(C)CC3)cc2)cc1Nc1nc(-c2cccnc2)cs1	2.98 µM and 2.62 µM	15.3 µM and > 10 µM	–
O=C(/C=C\c1ccc(O)c(O)c1)c1ccccc1O	2.98 µM	16.7 µM	–
COc1ccc(-c2nc3sc(-c4cc(OC)c(OC)c(OC)c4)nn3c2/C=C2/C(=O)Nc3ccc(F)cc32)cc1	2.53 µM	7.88 µM	–
C/C(=C\C(=O)O[C@H]1[C@@H]2[C@H](C)CC[C@H]2[C@]2(C)O[C@@]1(C1CCCCC1)C[C@H]2OC(=O)CO)c1ccccc1	6.7 µM	13.4 µM	–
CC(C)=CCc1cc2c(cc1O)C1=C(C(=O)C3=C(NCCS3(=O)=O)C1=O)C(C=C(C)C)O2 (centres undefined)	3.27 µM	12.8 µM	–
COc1cc2cc(NCc3cccc(Cl)c3)nc(C)c2cc1OC	4.06 µM	24.3 µM	–
O=C(N/N=C/c1ccc(Cl)cc1)c1ccc(NC(=O)c2ccccn2)cc1	23.2 µM	95.2 µM	–
ClC1=C(Cl)C(Cl)(C2(Cl)C(Cl)=C(Cl)C(Cl)=C2Cl)C(Cl)=C1Cl	0.334 µM	1.42 µM	–
CC1=C(CCCOC(=O)[C@H](N)CC(C)C)C2=C(C)C3(CC3)[C@@](C)(O)C(=O)C2=C1	1.37 µM	4.6 µM	–
COC(=O)c1c2c(c(C)[n+]([O-])c1C)C(=O)C(NCc1ccc(OC)cc1)=CC2=O	1.27 µM	3.06 µM	–
COc1cccc2c1nc(C(F)F)n2-c1nc(-c2ccc(NS(=O)(=O)CCN(C)C)cc2)nc(N2CCOCC2)n1	0.0711 µM	0.492 µM	–
CN1C(=O)C(c2c[nH]c3ccccc23)=C(c2c[nH]c3ccccc23)C1=O	5.12 µM	19 µM	–
CC(C)(C)CC(C)(C)c1ccc(OCCO)cc1	–	–	inactive
CCCCn1c(=O)[nH]c(N)c([C@@H]2c3c([nH]c(=O)n(CCCC)c3=O)Oc3ccc4ccccc4c32)c1=O	13.4 µM	33.4 µM	–
Nc1ccc(/C=C/c2ccc3ncccc3c2)cc1	> 100 µM	> 100 µM	–
Cn1cc(C2=C(c3ccsc3)C(=O)NC2=O)c2ccccc21	> 22.3 µM	> 25 µM	–
Sc1cccc2cccnc12	2.71 µM	15.6 µM	–
